Each block holds one compound with its values, some of them ahead of it. Active and inactive are the calls of the source.
Columns and labels:
[1] = target: DNA dC->dU-editing enzyme APOBEC-3G (Homo sapiens, UniProt Q9HC16); assay type: functional;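 also: Dose-response counterscreen measuring inhibition of APOBEC3G DNA deaminase activity, run while confirming APOBEC3A inhibitors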
[2] = target: DNA dC->dU-editing enzyme APOBEC-3A (Homo sapiens, UniProt P31941); assay: Dose Response confirmation of small molecule APOBEC3A DNA Deaminase Inhibitors via a fluorescence-based single-stranded DNA deaminase assay. [Related pubchem assays (depositor defined):AID493011, AID493024]; assay type: functional
[3] = target: G-protein coupled receptor 55 (Homo sapiens, UniProt Q9Y2T6); assay: inhibition of LPI-stimulated GPR55 beta-arrestin translocation – imaging, U2OS, beta-arrestin-GFP, LPI agonist, primary screen (AID 2013); assay type: functional;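 also: antagonist potency measured as reduced agonist-driven arrestin aggregation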
[4] = target: T1, Runt-related transcription factor 1/Core-binding factor subunit beta (Homo sapiens, UniProt Q01196+Q13951); assay: disruptors of Runt domain/CBFb-SMMHC interaction – biochemical, FRET, Cerulean-Runt, Venus-CBFb-SMMHC, uHTS, […] (AID 1434); assay type: protein assay
[5] = target: T1, Runt-related transcription factor 1/Core-binding factor subunit beta; assay: Runt domain/CBFb-SMMHC interaction disruptors – biochemical, TR-FRET (AID 1438); assay type: protein assay
Genome polyprotein = Genome polyprotein (dengue virus type 2, UniProt P29990); assay: flavivirus cap methylation enzyme inhibition – biochemical, confirmation dose response, primary screen (AID 588689); assay type: functional
CAAX prenyl protease 1 = CAAX prenyl protease 1 (Saccharomyces cerevisiae S288c, UniProt P47154); assay: yeast CAAX protease Ste24 inhibition – biochemical, S. cerevisiae, plate reader, cherry-pick, dose response (AID 488815)
[6] = viability of PTEN-deleted HCT116 cells – cell-based, HCT116 PTEN knockout, dose response (AID 1047); assay type: functional;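 also: HCT116 colon tumor cells with PTEN knocked out; cells exposed to compound for 60 hours before readout; potency for loss of cell viability measured by luminescence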
SUMO-activating enzyme = SUMO-activating enzyme (Homo sapiens, UniProt Q9UBT2); assay: blockers of UBC9-mediated SUMO conjugation – biochemical, AlphaScreen, SUMOylation inhibitor project, confirmation (AID 2018); assay type: functional
Estrogen receptor beta = Estrogen receptor beta (Homo sapiens, UniProt Q92731); assay: blockers of SRC-3 recruitment to ERβ – biochemical, ELISA, streptavidin-HRP readout, orthogonal assay, confirmation (AID 1060)
Bcl-2-like protein 10 = target: T2, Bcl-2-like protein 10 (Homo sapiens, UniProt Q9HD36); assay: Bcl-B/TR3 peptide binding disruption – biochemical, fluorescence polarization, FITC-TR3 peptide, selectivity assay for Bfl-1 inhibitor project, primary screen (AID 748);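 also: fluorescence polarization from a fluorescein-labelled TR3 peptide binding purified Bcl-B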
T2 sequence (Q9HD36 whole entry): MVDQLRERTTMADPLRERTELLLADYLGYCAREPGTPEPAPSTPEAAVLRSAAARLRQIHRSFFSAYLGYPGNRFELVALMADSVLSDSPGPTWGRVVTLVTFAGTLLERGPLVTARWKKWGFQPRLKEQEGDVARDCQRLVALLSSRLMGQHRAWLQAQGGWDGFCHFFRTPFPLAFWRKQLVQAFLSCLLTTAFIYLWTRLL

[7] = target: Alkaline phosphatase, placental type (Homo sapiens, UniProt P05187); assay: human placental alkaline phosphatase inhibition – biochemical, luminescence, confirmation (AID 1512); assay type: functional
[8] = fluconazole-exposed Candida albicans growth modulators – fluorescence, retest, confirmation (AID 2467); assay type: functional, cell-based
[9] = NIH-3T3 fibroblast cytotoxicity, dose response, cytotoxicity control, cell-based, fluorescence, Alamar Blue, secondary assay (AID 2327); assay type: functional;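 also: NIH-3T3 mouse fibroblasts cultured with fluconazole at 8 µg/mL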
[10] = target: T3, Mannose-6-phosphate isomerase (Homo sapiens, UniProt P34949); assay: MPI inhibition at elevated mannose 6-phosphate – biochemical, fluorescence intensity, high mannose 6-phosphate, primary screen (AID 1220)
T3 sequence (P34949 whole entry): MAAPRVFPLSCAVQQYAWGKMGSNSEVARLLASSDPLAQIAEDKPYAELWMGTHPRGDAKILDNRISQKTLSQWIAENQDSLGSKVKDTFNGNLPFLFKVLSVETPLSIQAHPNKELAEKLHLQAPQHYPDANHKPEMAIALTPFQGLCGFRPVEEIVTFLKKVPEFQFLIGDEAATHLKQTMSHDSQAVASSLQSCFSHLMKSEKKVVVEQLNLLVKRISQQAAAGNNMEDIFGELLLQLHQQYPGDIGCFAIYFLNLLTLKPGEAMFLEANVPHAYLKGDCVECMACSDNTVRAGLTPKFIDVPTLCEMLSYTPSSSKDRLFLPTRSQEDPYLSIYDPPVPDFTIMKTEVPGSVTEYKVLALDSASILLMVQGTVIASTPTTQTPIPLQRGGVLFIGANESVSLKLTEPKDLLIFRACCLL

[11] = Luminescence Cell-Based Dose Retest to Confirm Inhibitors of Cancer Stem Cells. [Related pubchem assays (depositor defined):AID2717, AID2721]; assay type: functional; conditions: Homo sapiens
Leucine aminopeptidase = target: T4, Leucine aminopeptidase (Plasmodium falciparum 3D7, UniProt Q8IL11); assay: P. falciparum M17LAP inhibitors, primary screen, biochemical, fluorogenic H-Leu-NHMec substrate, 1536-well (AID 1619); assay type: functional
T4 sequence (Q8IL11 whole entry): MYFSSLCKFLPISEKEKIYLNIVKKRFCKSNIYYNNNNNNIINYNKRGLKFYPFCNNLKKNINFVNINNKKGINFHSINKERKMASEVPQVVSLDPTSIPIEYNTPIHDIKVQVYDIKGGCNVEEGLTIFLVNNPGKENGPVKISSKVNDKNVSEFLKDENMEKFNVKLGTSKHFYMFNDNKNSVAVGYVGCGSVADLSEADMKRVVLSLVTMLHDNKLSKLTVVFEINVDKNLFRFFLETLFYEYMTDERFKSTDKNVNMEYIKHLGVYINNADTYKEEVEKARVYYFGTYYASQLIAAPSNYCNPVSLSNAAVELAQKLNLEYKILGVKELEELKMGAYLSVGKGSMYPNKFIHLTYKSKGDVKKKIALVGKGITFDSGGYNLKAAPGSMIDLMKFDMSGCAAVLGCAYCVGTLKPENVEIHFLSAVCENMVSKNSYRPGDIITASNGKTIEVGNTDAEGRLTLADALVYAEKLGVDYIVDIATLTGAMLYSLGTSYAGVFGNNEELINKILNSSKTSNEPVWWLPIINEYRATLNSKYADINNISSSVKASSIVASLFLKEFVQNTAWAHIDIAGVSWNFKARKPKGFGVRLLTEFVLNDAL

[12] = target: T5, Short transient receptor potential channel 4 (Mus musculus, UniProt Q9QUQ5); assay: block of DAMGO-driven TRPC4 calcium entry – cell-based, HEK293 TRPC4/mu-opioid, Fluo-4 calcium, dose response (AID 434942); assay type: functional;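 also: potency of inhibitors blocking the TRPC4 calcium response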
T5 sequence (Q9QUQ5 whole entry): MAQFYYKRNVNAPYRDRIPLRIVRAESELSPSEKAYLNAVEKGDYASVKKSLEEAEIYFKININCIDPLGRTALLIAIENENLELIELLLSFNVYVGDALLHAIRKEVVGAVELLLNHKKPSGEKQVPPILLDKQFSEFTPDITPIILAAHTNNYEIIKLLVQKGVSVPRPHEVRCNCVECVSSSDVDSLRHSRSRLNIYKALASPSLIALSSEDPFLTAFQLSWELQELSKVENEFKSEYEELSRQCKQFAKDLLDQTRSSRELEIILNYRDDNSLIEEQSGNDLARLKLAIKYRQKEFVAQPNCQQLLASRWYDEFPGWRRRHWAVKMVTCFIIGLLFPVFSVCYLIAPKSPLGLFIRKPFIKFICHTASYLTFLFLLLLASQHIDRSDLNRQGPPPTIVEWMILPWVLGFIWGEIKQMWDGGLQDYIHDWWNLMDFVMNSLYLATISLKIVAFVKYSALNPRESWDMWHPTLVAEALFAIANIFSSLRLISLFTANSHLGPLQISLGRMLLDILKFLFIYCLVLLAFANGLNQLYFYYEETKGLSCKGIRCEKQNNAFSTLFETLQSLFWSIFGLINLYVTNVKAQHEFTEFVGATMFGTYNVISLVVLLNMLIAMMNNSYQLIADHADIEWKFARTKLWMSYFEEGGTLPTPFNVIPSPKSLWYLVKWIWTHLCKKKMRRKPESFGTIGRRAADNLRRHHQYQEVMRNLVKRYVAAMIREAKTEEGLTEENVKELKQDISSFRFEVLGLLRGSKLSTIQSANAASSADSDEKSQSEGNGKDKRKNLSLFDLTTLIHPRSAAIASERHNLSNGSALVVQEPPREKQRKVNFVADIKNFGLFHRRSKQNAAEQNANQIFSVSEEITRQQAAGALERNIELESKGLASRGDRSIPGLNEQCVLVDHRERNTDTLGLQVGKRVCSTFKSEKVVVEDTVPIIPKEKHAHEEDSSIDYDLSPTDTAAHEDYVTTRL

Troponin, cardiac muscle = Troponin, cardiac muscle (Homo sapiens, UniProt P19429+P45379+P63316); assay: Fluorescence-based biochemical high throughput dose response assay for activators of the calcium sensitivity of cardiac Regulated Thin Filaments (RTF). [Related pubchem assays (depositor defined):AID493008, AID493018, AID504382, AID504383]; assay type: protein-complex assay
[13] = target: T6, Voltage-gated N-type calcium channel alpha-1B subunit/Amyloid beta A4 precursor protein-binding family A member 1 (Homo sapiens, UniProt Q00975+Q02410); assay: disruptors of Mint-PDZ/N-type channel peptide interaction – biochemical, HTRF, SAR follow-up (AID 2489); assay type: functional
[14] = target: T6, Voltage-gated N-type calcium channel alpha-1B subunit/Amyloid beta A4 precursor protein-binding family A member 1; assay: disruptors of Mint-PDZ/N-type channel peptide interaction – biochemical, HTRF, set 2, SAR follow-up (AID 434980); assay type: functional
SUMO E1/E2 = SUMO E1/E2 (Homo sapiens, UniProt P63279+Q9UBE0+Q9UBT2); assay: SAR analysis of SUMOylation using HTRF in an in-Vitro dose response assay. [Related pubchem assays (depositor defined):AID2006, AID2011, AID2018, AID2069, AID2658]; assay type: functional
[15] = target: T7, Sphingosine 1-phosphate receptor 4 (Homo sapiens, UniProt O95977); assay: Late-stage fluorescence dose response cell-based assay to identify agonists of the Sphingosine 1-Phosphate Receptor 4 (S1P4): purchased compounds EC50. [Related pubchem assays (depositor defined):AID1509, AID1523, AID1563, AID1686, AID1701, AID1801]; assay type: functional
T7 sequence (O95977 whole entry): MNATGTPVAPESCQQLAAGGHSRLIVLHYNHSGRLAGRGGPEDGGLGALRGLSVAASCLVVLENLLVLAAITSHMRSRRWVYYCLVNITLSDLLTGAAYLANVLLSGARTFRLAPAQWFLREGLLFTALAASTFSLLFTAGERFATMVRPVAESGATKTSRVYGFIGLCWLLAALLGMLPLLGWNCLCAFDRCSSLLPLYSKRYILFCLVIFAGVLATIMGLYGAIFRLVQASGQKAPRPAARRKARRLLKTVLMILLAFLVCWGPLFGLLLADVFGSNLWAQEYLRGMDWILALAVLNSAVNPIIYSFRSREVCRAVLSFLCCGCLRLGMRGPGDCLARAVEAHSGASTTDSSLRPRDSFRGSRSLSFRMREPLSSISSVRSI

SMILES: COC(=O)C1=C(C)N(Cc2ccccc2)C(NCCc2cccnc2)=N[C@H]1c1ccccc1
IC50 [1]: 4.62 µM (active)
IC50 [2]: 2.69 µM (active)
IC50 [3]: 1.08 µM (active)

SMILES: CCC1(C)Cc2c(sc3[nH]c(=O)[nH]c(=O)c23)CS1 (stereo not given)
IC50 [4]: 38.5 µM (active)
IC50 [5]: 45.1 µM (active)
IC50 (Genome polyprotein): 88.7 µM (active)

AC50 (CAAX prenyl protease 1): 3.7 µM (active)
SMILES: CCOC(=O)c1sc2nc(C3CC3)cc(-c3ccc(F)cc3)c2c1N

SMILES: Cc1cc(NC(=O)Cn2c(=O)n(Cc3ccccc3)c(=O)c3ccccc32)no1
EC50 [6]: 35.9 µM (active)
IC50 (SUMO-activating enzyme): 67.7 µM (active)

SMILES: O=C(Cc1cnn(-c2ccccc2)c1)c1ccc(O)c(O)c1O
IC50 (Estrogen receptor beta): 34.5 µM (not active)
IC50 (Bcl-2-like protein 10): 39.5 µM (active)
IC50 [7]: > 100 µM (inactive)
EC50 [8]: > 38 µM (not active)
EC50 [9]: > 150 µM (inactive)
IC50 (Genome polyprotein): 75.7 µM (active)
IC50 [10]: 4.69 µM (active)

SMILES: O=C(Nc1cc(N2CCOCC2)ncn1)NC1(C(F)(F)F)Oc2ccc(Cl)cc2O1 (stereo not given)
AC50 [11]: 7.43 µM (active)
IC50 [7]: 10.4 µM (active)
IC50 (Leucine aminopeptidase): 32.4 µM (active)
IC50 [10]: 18.1 µM (active)

EC50 [12]: 2.99 µM (active)
SMILES: COc1cc2ccccc2c2c1CCCC2=O

EC50 (Troponin, cardiac muscle): > 7.94 µM (active)
SMILES: CC1=CC(=C(C#N)c2nc3ccccc3s2)C=C(C)N1c1ccc(F)cc1

EC50 (Troponin, cardiac muscle): 12.9 µM (inactive)
SMILES: COc1ccc(/C=C2\SC(=S)N(CCCC(=O)Nc3ccccc3C(=O)O)C2=O)cc1OC

IC50 [13]: 15.4 µM (active)
IC50 [14]: 3.41 µM (active)
IC50 (SUMO E1/E2): 2.06 µM (active)
SMILES: COc1ccccc1C(=O)NC(=O)COC(=O)c1cc(-c2ccco2)nc2ccccc12

SMILES: Cc1ccc(CNC(=O)C(C)OC(=O)c2c(C)nn(Cc3ccc(C)cc3)c2Cl)cc1 (stereo not given)
EC50 [15]: > 50 µM (inactive)

EC50 [15]: > 50 µM (inactive)
SMILES: CCNC(=O)NC(=O)C(C)OC(=O)c1cc2c(C)nn(Cc3ccccc3)c2s1 (stereo not given)

SMILES: Cc1ccc(-n2c(C)cc(/C=N/NC(=O)Cn3c4ccccc4c(=O)c4ccccc43)c2C)cc1
IC50 [4]: 2.37 µM (active)
IC50 [5]: 13 µM (active)
